Measured values taken from patent US20240180900A1, “COMPOUNDS AND METHODS FOR THE TARGETED DEGRADATION OF ANDROGEN RECEPTOR” (Arvinas Operations, Inc., priority 2022, published 2024).

Experiments:
[1] = target: T1, AR (LNCaP cells, AR mutation T878A) (Homo sapiens, UniProt P10275, T878A); experiment: AR degradation assay in LNCaP cells; assay type: cell-based; conditions: 24 hours of treatment
T1 construct: endogenous in cells; host or cells: LNCaP
Description: FIG. 2 is an analysis of Compound A in in vitro AR degradation assays conducted in VCaP cells and LNCaP cancer cells that harbor AR amplification and the AR mutation (T878A) mutation, respectively.
To determine the pharmacological effect of Compound A in vitro, AR degradation assays were conducted in VCaP (vertebral-cancer of the prostate) cancer cells and LNCaP (lymph node carcinoma of the prostate) cancer cells that harbor AR amplification and the AR mutation (T878A) mutation, respectively.
To determine the pharmacological effect of Compound A in vitro, AR degradation assays were conducted in VCaP cells and LNCaP prostate cancer cells that harbor AR amplification and the AR mutation (T878A) mutation, respectively.

AR WT = target: T2, AR WT (Homo sapiens, UniProt P10275); experiment: AR degradation in T-Rex-293 cell line, wild-type AR; assay type: cell-based; conditions: T-Rex-293, ELISA
T2 construct: expressed in transfected cells; host or cells: T-REx-293
Description: (§1) FIG. 3 is a graph showing Compound A's ability to degrade clinically relevant mutated forms AR.
Plasmids expressing AR WT or the indicated AR mutants were stably transfected into HEK293 cells. Each cell line was treated with indicated concentrations of Compound A for 24 hours. AR levels were determined by AR ELISA without background subtraction. […]
(§2) To assess the ability of Compound A to degrade variants of the AR, vectors expressing wild-type AR or mutant AR proteins harboring clinically observed mutations in the ligand binding domain (13 with single amino acid changes or 4 with 2 amino acid changes) (Azad A. A., Volik S. V., Wyatt A. W., et al. Androgen receptor gene aberrations in circulating cell-free DNA: biomarkers of therapeutic resistance in castration-resistant prostate cancer. Clin Cancer Res. 2015; 21:2315-2324; Robinson D., Van Allen E. M., Wu Y. M., et al. Integrative clinical genomics of advanced prostate cancer. Cell. 2015; 161:1215-1228; Ledet E. M., Lilly M. B., Sonpavde G., et al. Comprehensive analysis of AR alterations in circulating tumor DNA from patients with advanced prostate cancer. Oncologist.

AR M750V = target: T3, AR M750V (Homo sapiens, UniProt P10275, M750V); experiment: AR degradation in T-Rex-293 cell line, M750V; assay type: cell-based; conditions: T-Rex-293, ELISA
T3 construct: expressed in transfected cells; host or cells: T-REx-293
T3 sequence (P10275 whole entry M750V): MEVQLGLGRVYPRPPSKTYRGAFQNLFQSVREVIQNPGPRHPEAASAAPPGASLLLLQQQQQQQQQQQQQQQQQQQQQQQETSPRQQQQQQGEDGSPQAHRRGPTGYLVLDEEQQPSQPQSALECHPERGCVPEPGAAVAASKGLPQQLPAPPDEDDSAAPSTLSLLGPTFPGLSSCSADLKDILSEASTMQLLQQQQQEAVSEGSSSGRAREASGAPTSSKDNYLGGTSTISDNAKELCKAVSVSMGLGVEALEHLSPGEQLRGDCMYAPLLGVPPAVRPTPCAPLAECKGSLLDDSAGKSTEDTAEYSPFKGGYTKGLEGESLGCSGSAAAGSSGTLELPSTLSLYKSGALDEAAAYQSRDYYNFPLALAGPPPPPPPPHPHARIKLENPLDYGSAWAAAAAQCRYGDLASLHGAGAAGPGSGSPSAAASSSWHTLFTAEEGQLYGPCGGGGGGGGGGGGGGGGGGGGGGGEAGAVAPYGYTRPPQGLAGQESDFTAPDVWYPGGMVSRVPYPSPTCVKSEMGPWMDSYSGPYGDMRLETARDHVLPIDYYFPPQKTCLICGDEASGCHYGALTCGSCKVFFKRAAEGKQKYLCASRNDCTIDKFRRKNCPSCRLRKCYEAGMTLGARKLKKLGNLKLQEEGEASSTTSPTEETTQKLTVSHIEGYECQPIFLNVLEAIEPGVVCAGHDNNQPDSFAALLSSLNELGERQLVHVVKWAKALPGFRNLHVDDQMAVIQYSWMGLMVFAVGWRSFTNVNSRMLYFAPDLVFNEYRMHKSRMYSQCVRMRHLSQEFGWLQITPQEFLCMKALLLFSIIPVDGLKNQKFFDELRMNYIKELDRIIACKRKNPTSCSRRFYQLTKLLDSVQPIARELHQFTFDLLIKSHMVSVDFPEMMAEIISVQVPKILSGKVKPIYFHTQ
Text: as §1, §2

AR D891H = target: T4, AR D891H (Homo sapiens, UniProt P10275, D891H); experiment: AR degradation in T-Rex-293 cell line, D891H (western blot); assay type: cell-based; conditions: T-Rex-293, western blot
T4 construct: expressed in transfected cells; host or cells: T-REx-293
T4 sequence (P10275 whole entry D891H): as the sequence (P10275 whole entry M750V) above, with V750M, D891H counted along it
Text: as §1, §2

AR T878A/S889G = target: T5, AR T878A/S889G (Homo sapiens, UniProt P10275, S889G/T878A); experiment: AR degradation in T-Rex-293 cell line, T878A/S889G; assay type: cell-based; conditions: T-Rex-293, ELISA
T5 construct: expressed in transfected cells; host or cells: T-REx-293
T5 sequence (P10275 whole entry T878A/S889G): as the sequence (P10275 whole entry M750V) above, with V750M, T878A, S889G counted along it
Text: as §1, §2

VCaP cells = experiment: VCaP cell proliferation in a high androgen environment (R1881); assay type: cell-based, human; conditions: Compound A 300 nM vs enzalutamide 1,000 nM, R1881 0.01 to 1 nM, 5 days
Description: Cell proliferation was determined using the CellTiter Glo® assay.

AR = target: T6, AR (Homo sapiens, UniProt P10275); experiment: AR degradation in castrated mice bearing VCaP xenografts (western blotting); assay type: in vivo, mouse; design: from tissue; host or cells: VCaP xenograft tumour tissue from castrated CB17/SCID mice
T6 sequence (P10275 1-920): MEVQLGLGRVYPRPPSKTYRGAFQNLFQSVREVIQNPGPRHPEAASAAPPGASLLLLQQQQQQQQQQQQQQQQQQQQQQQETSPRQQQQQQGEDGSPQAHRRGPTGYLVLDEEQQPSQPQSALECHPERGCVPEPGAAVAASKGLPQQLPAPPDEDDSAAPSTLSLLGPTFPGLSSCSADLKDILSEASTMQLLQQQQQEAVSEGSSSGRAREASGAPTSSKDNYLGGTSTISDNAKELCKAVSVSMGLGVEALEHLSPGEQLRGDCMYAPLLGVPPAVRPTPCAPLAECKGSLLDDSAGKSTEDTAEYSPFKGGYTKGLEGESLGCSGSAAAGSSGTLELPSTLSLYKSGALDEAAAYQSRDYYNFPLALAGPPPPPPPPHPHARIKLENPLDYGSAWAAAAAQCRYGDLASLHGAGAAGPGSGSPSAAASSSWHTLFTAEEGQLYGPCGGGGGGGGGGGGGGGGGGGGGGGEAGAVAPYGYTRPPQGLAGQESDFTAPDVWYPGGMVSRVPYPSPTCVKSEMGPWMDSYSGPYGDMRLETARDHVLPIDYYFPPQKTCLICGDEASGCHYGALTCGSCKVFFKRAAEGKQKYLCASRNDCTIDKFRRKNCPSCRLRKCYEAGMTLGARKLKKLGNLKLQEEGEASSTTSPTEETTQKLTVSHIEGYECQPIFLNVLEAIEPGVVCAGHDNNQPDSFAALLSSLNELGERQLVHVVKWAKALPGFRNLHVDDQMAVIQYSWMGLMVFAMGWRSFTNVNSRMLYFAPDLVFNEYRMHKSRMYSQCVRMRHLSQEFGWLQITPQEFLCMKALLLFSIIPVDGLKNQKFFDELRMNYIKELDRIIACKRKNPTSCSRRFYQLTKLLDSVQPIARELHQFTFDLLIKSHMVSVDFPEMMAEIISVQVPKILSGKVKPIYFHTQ
Description: Tumors were harvested 16 hours post-dose and tumor AR level was established by western blotting. Antibody recognizing human mitochondria specific antibody (Mito.C) was employed as a loading control. The quantitation of AR levels from the western blot is shown (lower panel).
Castration eliminates testosterone produced by the testes. Upon castration, prostate tumor cells implanted in the mouse start to produce testosterone on their own, enabling their growth. The effect of Compound A on AR degradation in vivo was evaluated in castrated mice bearing VCaP xenografts. To recapitulate human CRPC, when the implanted tumors reached a volume of approximately 100 mm^3, the mice were surgically castrated. Three weeks after castration, mice were administered a single PO dose of Compound A at 10, 3, 1, 0.3, 0.1, 0.03, or 0 (vehicle) mg/kg via gavage. Sixteen hours after treatment, the tumor tissues were collected, and lysates were prepared to assess AR expression by western blotting. At Compound A doses of 10, 3, 1, 0.3, 0.1, and 0.03 mg/kg, AR was reduced on average by 96%, 91%, 81%, 73%, -5%, and 14%, respectively (FIG. 11), compared to vehicle control.

T1 sequence (P10275 whole entry T878A): as the sequence (P10275 whole entry M750V) above, with V750M, T878A counted along it

COc1cc(O[C@H]2C(C)(C)[C@H](NC(=O)c3ccc(N4CCC(CN5CCN(c6ccc(C(=O)N[C@H]7CCC(=O)NC7=O)c(F)c6)CC5)CC4)cc3)C2(C)C)ccc1C#N [Compound A, 4-(4-((1-(4-(((1R,3R)-3-(4-cyano-3-methoxyphenoxy)-2,2,4,4-tetramethylcyclobutyl)carbamoyl)phenyl)piperidin-4-yl)methyl)piperazin-1-yl)-N—((S)-2,6-dioxopiperidin-3-yl)-2-fluorobenzamide]
DC50 [1]: ≤ 1.3 nM
Dmax [1]: ≥ 91%
DC50 (AR WT): 1.5 nM
DC50 (AR M750V): 1.4 nM
DC50 (AR D891H): 3.9 nM
DC50 (AR T878A/S889G): 3.6 nM
antiproliferative effects vs enzalutamide (VCaP cells): more potent antiproliferative effects than enzalutamide
AR reduced on average vs vehicle control (AR; single PO dose 0.03 mg/kg, 16 hours): 14%
AR reduced on average vs vehicle control (AR; single PO dose 0.1 mg/kg, 16 hours): -5%
AR reduced on average vs vehicle control (AR; single PO dose 0.3 mg/kg, 16 hours): 73%
AR reduced on average vs vehicle control (AR; single PO dose 1 mg/kg, 16 hours): 81%
AR reduced on average vs vehicle control (AR; single PO dose 3 mg/kg, 16 hours): 91%
AR reduced on average vs vehicle control (AR; single PO dose 10 mg/kg, tumors 16 hours post-dose): 96%
